The test system of series [1] is Canidae. As to conditions: oral.
For series [2], the system named is Rattus norvegicus. As to conditions: oral; for LOAEL / NOAEL: Crl: CD BR.
The test system of series [3] is Oryctolagus sp. As to conditions: duration: 14 days, oral, gavage, New Zealand.
Series [4] deals with Rattus norvegicus. As to conditions: acute.
Series [5] deals with Cavia porcellus. As to conditions: acute; inhalation; Guinea Pig.
The subject of series [6] is Mus musculus. The settings on record: acute.
Series [7] has as its system Rattus norvegicus. As to conditions: for LEL: uterotrophic, Active.
For series [8], the system named is Mus musculus. As to conditions: uterotrophic, Active.
The subject of series [9] is Canidae. As to conditions: chronic; oral; diet; M/F; Dog Other; methemoglobin and sulfhemoglobin formation.
For series [10], the system named is Rattus norvegicus. As to conditions: chronic; duration: 2 years; oral; Increased methaemoglobin and sulfhaemoglobin levels.
Series [11] relates to Mus musculus. As to conditions: repeat dose other; oral.
Series [12] has as its system Rattus norvegicus. As to conditions: Wistar; for LOAEL: subchronic.
Series [13] relates to Oryctolagus sp. As to conditions: subchronic, inhalation.
Series [14] has as its system Rattus norvegicus. The settings on record: subchronic, oral, drinking water, Fischer 344, Deaths + Clinical Observation: Emaciation Diarrhea Abnormal posture Tremors + Body Weight Changes: decrease + Water Consumption: decrease + ….
Series [15] concerns Rattus norvegicus.
The mark [16] stands for this setting: developmental, duration: 11 days, gavage, M/F, generation: F1, F1: Developmental: Uterus: Dead Fetuses + F1: Developmental: Uterus: Fetuses, Live + F1: Developmental: Whole Body: Body Weight, Fetal + F1….
Where [17] appears, read: developmental, duration: 11 days, gavage, M/F, Crl:CD(SD) BR, generation: F1, F1: Whole Body: Body Weight, Fetal.
[18] abbreviates: reproduction developmental, duration: 11 days, gavage, F, generation: P0, P0: Developmental: Uterus: Implantation + P0: Developmental: Uterus: Resorptions, Early + P0: Developmental: Uterus: Resorptions, Late + P0….
Where [19] appears, read: developmental, M/F, generation: F1, F1: Developmental: Uterus: Dead Fetuses + F1: Developmental: Uterus: Fetuses, Live + F1: Developmental: Whole Body: Body Weight, Fetal + F1….
Where [20] appears, read: reproduction developmental, F, generation: P0, P0: Developmental: Uterus: Abortions + P0: Developmental: Uterus: Implantation + P0: Developmental: Uterus: Resorptions, Early + P0: ….
Setting [21] is: reproduction developmental, F, generation: P0, P0: Uterus: Abortions.
[22] abbreviates: reproduction developmental, F, generation: P0, P0: Whole Body: Maternal Body Weight Change.
Where [23] appears, read: subchronic, duration: 3 months, gavage, M/F, Beagle, Mydriasis.
Where [24] appears, read: duration: 36 days, injection, subcutaneous.
[25] abbreviates: duration: 3 days, injection, intraperitoneal.
Where [26] appears, read: M/F, New Zealand, reduced testes weight, seminiferous tubule degeneration and reduced hemoglobin.
Where [27] appears, read: chronic, duration: 1 years, gavage, M/F, Beagle, Mydriasis and focal neuronal degeneration.
Where [28] appears, read: duration: 7 days, injection, subcutaneous.
Setting [29] is: reproduction developmental, oral, drinking water, M/F, neurodevelopmental effects.

The text below walks through data of EPA's ToxValDB 9.5.

For orientation: LOAEL means the lowest tested level that showed an adverse finding. Usually NOAEL stands for the highest dose or exposure tested at which no adverse effect was seen. Broadly, the LD50 is the dose at which mortality reaches 50%. A high value points to lower toxicity.

Values joined by “and” are separate entries in the source; they are usually repeats but may differ in a detail not shown here. Equal entries are not always repeated. Bounds are passed on as bounds.

As for `CO[C@H]1C[C@H](O[C@H]2[C@H](C)O[C@@H](O[C@@H]3/C(C)=C/C[C@@H]4C[C@@H](C[C@]5(C=C[C@H](C)[C@@H](C6CCCCC6)O5)O4)OC(=O)[C@@H]4C=C(C)[C@@H](O)[C@H]5OC/C(=C\C=C\[C@@H]3C)[C@]54O)C[C@@H]2OC)O[C@@H](C)[C@@H]1O` [Doramectin], the LOEL in [1] (duration: 3 months, gavage, M/F, Beagle, Mydriasis) was determined as 0.3 mg/kg-day. In [1] (subchronic, duration: 3 months, gavage, M/F, Dog Other, Mydriasis), this compound gave an NOEL of 0.1 mg/kg-day.
In the case of `CCN(CCO)S(=O)(=O)C(F)(F)C(F)(F)C(F)(F)C(F)(F)C(F)(F)C(F)(F)C(F)(F)C(F)(F)F` [N-Ethyl-N-(2-hydroxyethyl)perfluorooctane sulfonamide], the lowest observed adverse effect level (LOAEL) in series [2] (setting [16]) came to 10 mg/kg-day; in [2] (setting [18]), 10 mg/kg-day; in series [3] (setting [19]), 2.5 mg/kg-day; in series [3] (setting [20]) it was 2.5 mg/kg-day. Moreover, the NOAEL in series [2] (setting [16]) was 5 mg/kg-day; in series [2] (setting [18]), 5 mg/kg-day; in series [2] (reproduction developmental, duration: 11 days, gavage, F, generation: P0, P0: Reproductive: Ovary: Corpora Lutea), 20 mg/kg-day; in [3] (setting [19]), 1 mg/kg-day; in series [3] (setting [20]), 1 mg/kg-day; in series [3] (reproduction developmental, F, generation: P0, P0: Reproductive: Ovary: Corpora Lutea), 3.75 mg/kg-day. For the same compound, the NEL came to 20 mg/kg-day in [2] (developmental, duration: 11 days, gavage, M/F, Crl:CD(SD) BR, generation: F1, F1: Uterus: Fetuses, Dead + F1: Uterus: Fetuses, Live + F1: Whole Body: Fetal Alterations Count, External Malformations + F1: Whole Body: …); 5 mg/kg-day in [2] (setting [17]); 20 mg/kg-day in series [2] (reproduction developmental, duration: 11 days, gavage, F, Crl:CD(SD) BR, generation: P0, P0: Ovary: Corpora Lutea + P0: Uterus: Implantation + P0: Uterus: Resorptions, Early + P0: Uterus: Resorptions, Late + P0: Whole Body: …); 5 mg/kg-day in [2] (short-term, duration: 3 weeks, F, Sprague-Dawley, Kidney: Kidney Weight, Absolute + Kidney: Kidney Weight, Relative + Liver: Acyl-CoA Oxidase Activity, Liver + Liver: Catalase (CAT) Activity…); 3.75 mg/kg-day in series [3] (developmental, M/F, generation: F1, F1: Uterus: Fetuses, Dead + F1: Uterus: Fetuses, Live + F1: Whole Body: Body Weight, Fetal + F1: Whole Body: Fetal Alterations Count, …); 3.75 mg/kg-day in [3] (reproduction developmental, F, generation: P0, P0: Ovary: Corpora Lutea + P0: Uterus: Implantation + P0: Uterus: Resorptions, Early + P0: Uterus: Resorptions, Late + P0: Whole Body: …). The figures for the NEL in [3] (setting [21]) and in series [3] (setting [22]) were 2.5 mg/kg-day and 1 mg/kg-day, respectively. In addition, the LEL turned out to be 10 mg/kg-day in series [2] (setting [17]); 5 mg/kg-day in series [2] (short-term, duration: 3 weeks, F, Sprague-Dawley, Liver: Copper Zinc Superoxide Dismutase (CuZnSOD) Activity, Lver + Liver: Liver Weight, Relative + Liver: Manganese Superoxide Dismutase (…); 3.75 mg/kg-day in [3] (setting [21]); 2.5 mg/kg-day in [3] (setting [22]).
Consider `N#CCCSCCC#N` [3,3'-Thiodipropionitrile], for which the LC50 in series [4] (inhalation), in [5] and in series [6] (inhalation) was above 88.9 mg/m3 in each case. The compound also registered an LD50 in series [6] (oral, gavage, albino) of 3750 mg/kg.
For the compound `Cc1ccc2c(=O)c3cccc(CC(=O)O)c3oc2c1C` [5,6-Dimethylxanthenone-4-acetic acid], in [1] (setting [23]), the LOEL turned out to be 0.3 mg/kg-day and the NOEL was 0.1 mg/kg-day.
For the compound `CC(=O)O[C@]1(C(C)=O)CC[C@H]2[C@@H]3C=C(Cl)C4=CC(=O)[C@@H]5C[C@@H]5[C@]4(C)[C@H]3CC[C@@]21C` [Cyproterone acetate], the LOEL in series [7] (Hershberger, duration: 10 days, oral, gavage, Wistar, active + Negative + Antiandrogenic + anti-androgenic) was determined as 0.4 mg/kg-day. The LEL in series [7] (setting [24]) is 3 mg and 1 mg/day; in series [8] (setting [24]), 2 mg and 1 mg/day.
In series [9], `O=C(NC(=O)c1c(F)cccc1F)Nc1ccc(Cl)cc1` [Diflubenzuron] gave an LEL of 10 mg/kg-day and an NOEL of 2 mg/kg-day. This compound also displayed a no observed adverse effect level (NOAEL) in series [10] of 2 mg/kg-day. The compound further gave an NOAEL in series [1] (chronic, duration: 1 years, Dog Other, Increased methaemoglobin and sulfhaemoglobin levels, platelet counts and hepatic pigmentation) of 2 mg/kg-day.
Take `C#C[C@]1(O)CC[C@H]2[C@@H]3CCC4=CC(=O)CC[C@@H]4[C@H]3CC[C@@]21C` [Norethindrone]: the NOEL in series [7] (Hershberger, duration: 10 days, oral, gavage, Sprague-Dawley, active + negative + Negative + neither) was found to be 10 mg/kg-day. The LEL was determined as 2 mg/day in [7] (duration: 14 days, injection, subcutaneous); 0.1 mg/day in series [7] (duration: 14 days, oral); 0.1 mg/day in [8] (duration: 3 days, oral).
In series [11], `CC(=O)[O-].CC(=O)[O-].[O]=[U+2]=[O]` [Uranyl acetate] returned an LOAEL of 6.13 mg/kg-day and a no observed adverse effect level (NOAEL) of 3.07 mg/kg-day.
With `CCCCCCOC(=O)c1ccccc1C(=O)OCCCCCC` [Dihexyl phthalate], in series [4] (oral), the median lethal dose (LD50) was 38.9 mg/kg and 29.6 mg/kg. Also, in [11], the lowest observed adverse effect level (LOAEL) is 550 mg/kg-day and the NOAEL is 55 mg/kg-day.
Consider `ClC1C(Cl)C(Cl)C(Cl)C(Cl)C1Cl` (stereo not drawn) [beta-Hexachlorocyclohexane], for which the LEL in series [7] (duration: 3 days, oral) was determined as 3 mg/kg-day; in series [8] (setting [25]) it was 100 mg/kg-day. This compound also returned an NOAEL in series [12] (short-term, duration: 2 weeks, oral, diet, M/F, neurological) of 8 mg/kg-day. Moreover, the lowest-observed-adverse-effect level (LOAEL) in series [12] (duration: 13 weeks, oral, diet, M/F, hepatic) stood at 0.18 mg/kg-day.
In series [13] (setting [26]), `CCOCCO` [2-Ethoxyethanol] showed an LOAEL of 1480 mg/m3 and an NOAEL of 380 mg/m3. For the same compound, the NOEL in series [14] (F) was 122 mg/kg-day. Moreover, the NOEL in series [14] (M/F) was below 190 mg/kg-day.
In [1] (setting [27]), `CO[C@H]1C[C@H](O[C@@H]2/C(C)=C\C[C@@H]3C[C@@H](C[C@]4(C=C[C@H](C)[C@@H](C(C)C)O4)O3)OC(=O)[C@@H]3C=C(C)[C@@H](O)[C@H]4OC/C(=C/C=C\[C@@H]2C)[C@]43O)O[C@@H](C)[C@H]1O[C@H]1C[C@@H](OC)[C@H](NC(C)=O)[C@H](C)O1` [Eprinomectin] registered an LOAEL of 2 mg/kg-day and an NOEL of 1 mg/kg-day.
For `C=C1C[C@]23C[C@@]1(O)CC[C@H]2[C@@]12C=C[C@H](O)[C@@](C)(C(=O)O1)[C@H]2[C@@H]3C(=O)O` [Gibberellic acid], the LEL in series [8] (duration: 5 days, injection, subcutaneous) amounted to 0.0001 mg/day.
In the case of `CCCCCCCCCc1ccc(O)cc1` [4-Nonylphenol], the LEL was 200 mg/kg-day and 600 mg/kg-day in series [7] (duration: 1 days, injection, subcutaneous); 100 mg/kg-day in [7] (setting [25]); 100 mg/kg-day in [7] (duration: 5 days, oral); 120 mg/kg-day in [7] (duration: 7 days, oral); 150 mg/kg-day in [7] (duration: 11 days, oral); 0.022 mg in [8] (duration: 0.17 days, injection, subcutaneous).
Consider `Clc1ccc(C(c2ccccc2Cl)C(Cl)(Cl)Cl)cc1` (centres undefined) [o,p'-DDT], for which the LEL in series [7] (duration: 0.25 days, injection, subcutaneous) amounted to 10 mg/day; in series [7] (duration: 1 days, oral) it was 300 mg/kg-day; in series [7] (duration: 2 days, injection, intraperitoneal), 4 mg; in series [7] (duration: 2 days, injection, subcutaneous), 4 mg; in [7] (duration: 3 days, oral, diet) it was 250 ppm; in series [7] (duration: 7 days, injection, intraperitoneal), 10 mg/day. The LEL in series [7] (setting [28]) was 50 mg/kg-day and 100 mg/kg-day; in series [7] (duration: 7 days, oral) it was 50 mg/kg-day; in series [7] (duration: 7 days, oral, diet), 500 ppm; in series [7] (duration: 8 days, oral, diet), 500 ppm; in [7] (duration: 27 days, injection, intraperitoneal) it was 0.5 mg/day; in series [8] (duration: 1 days, oral), 375 mg/kg-day and 300 mg/kg-day. Besides, the LEL in series [8] (duration: 3 days, oral) came out at 30 mg/kg-day.
In the case of `CC(=O)NCC(=O)O.CC(=O)NCC(=O)O.N=C(N)c1ccc(N=NNc2ccc(C(=N)N)cc2)cc1` [Diminazene diaceturate], the LOEL was 60 mg/kg-day in series [1] (chronic, duration: 9 months, capsule, M/F, Beagle, Decreased bodyweights, mortality, prostatic malfunction, foci of softening in the brainstem, & testicular atrophy) and 60 mg/kg-day in series [1] (duration: 9 months, capsule, M/F, Beagle, Decreased bodyweights, mortality, prostatic malfunction, foci of softening in the brainstem, & testicular atrophy).
Consider `[O][Cl+][O-]` [Chlorine dioxide], for which the LOAEL in series [15] (setting [29]) stood at 6 mg/kg-day; in [15] (subchronic, duration: 60 days, inhalation, vascular congestion and peribronchial edema), 2.76 mg/m3; in series [13] (duration: 45 days, Hemorrhagic alveoli and congested capillaries the lungs), 6.9 mg/m3; in series [12] (duration: 2 months, inhalation, unknown, respiratory), 2.76 mg/m3. The compound further returned a no observed adverse effect level (NOAEL) in [15] (setting [29]) of 3 mg/kg-day.
In series [8] (setting [28]), `COC(=O)[C@H]1[C@H]2C[C@@H]3c4[nH]c5cc(OC)ccc5c4CCN3C[C@H]2C[C@@H](OC(=O)c2cc(OC)c(OC)c(OC)c2)[C@@H]1OC` [Reserpine] had an LEL of 3 mg/kg-day.
